Reference: US6821980B1, “Substituted 5-benzyl-2,4-diaminopyrimidines” (Basilea Pharmaceutica AG, priority 1999, dated 2004)
Values after ≈ are worked out from the molar mass of the structure shown. Read-outs that look alike come from different tables or passages of the source.

Legend:
[1] = molecular target: T1, purified DHFR of strain Sp1/1 of Streptococcus pneumoniae (Streptococcus pneumoniae serotype 4, UniProt Q54801); type: biochemical; conditions: IC50 against purified DHFR of strain Sp1/1
T1 sequence (Q54801 1-168 I100L): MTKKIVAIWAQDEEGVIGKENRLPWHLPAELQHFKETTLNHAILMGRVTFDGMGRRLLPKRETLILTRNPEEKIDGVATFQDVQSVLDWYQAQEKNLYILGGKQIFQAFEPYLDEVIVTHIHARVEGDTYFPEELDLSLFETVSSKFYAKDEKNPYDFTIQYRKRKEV

[2] = system: Staphylococcus aureus 101; assay: MIC against Staphylococcus aureus 101; type: cell-based; conditions: Staphylococcus aureus 101, MRSA- and trimethoprim-resistant, clinical isolate, read-out: MIC Sa101
[3] = system: Streptococcus pneumoniae 1/1; assay: MIC against Streptococcus pneumoniae 1/1; type: cell-based; conditions: Streptococcus pneumoniae 1/1, trimethoprim- and penicillin-resistant, serotype 6, clinical isolate, read-out: MIC Sp1/1
[4] = molecular target: purified DHFR of strain 157/4696 of Staphylococcus aureus (Staphylococcus aureus, UniProt P13955); assay: biochemical
purified DHFR of strain 157/4696 of Staphylococcus aureus, sequence (P13955 whole entry): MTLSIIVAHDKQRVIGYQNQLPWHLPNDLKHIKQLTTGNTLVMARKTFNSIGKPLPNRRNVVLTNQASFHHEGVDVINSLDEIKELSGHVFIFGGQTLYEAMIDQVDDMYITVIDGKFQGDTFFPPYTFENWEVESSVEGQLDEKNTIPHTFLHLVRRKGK

Row | Structure (SMILES) | IC50 ([1]; Table 2) [nM] | MIC ([2]; Table 2) [µg/mL] | MIC ([3]; Table 2) [µg/mL] | IC50 [4] [nM] | IC50 ([1]; Table 1) [nM] | MIC ([2]; Table 1) [µg/mL] | MIC ([3]; Table 1) [µg/mL]
1 | CCOc1cc(Cc2cnc(N)nc2N)cc(OCC2CC2)c1-c1ccc(OC)cc1 [Example 09-d, 5-(2-Cyclopropylmethoxy-6-ethoxy-4′-methoxy-biphenyl-4-ylmethyl)-pyrimidine-2.4-diamine] | 30 | 4 (≈ 9.51 µM) | 2 (≈ 4.76 µM) | 1500 | – | – | –
2 | CCCOc1cc(Cc2cnc(N)nc2N)cc(OCC)c1-c1ccc(OC)cc1 [Example 09-e, 5-(6-Ethoxy-4′-methoxy-2-propoxy-biphenyl-4-ylmethyl)-pyrimidine-2,4-diamine] | 45 | 4 (≈ 9.79 µM) | 4 (≈ 9.79 µM) | 1000 | – | – | –
3 | CCOc1cc(Cc2cnc(N)nc2N)cc(OC(C)C)c1-c1ccc(OC)cc1 [Example 09-f, 5-(2-Ethoxy-6-isopropopy-4′-methoxy-biphenyl-4-ylmethyl)-pyrimidine-2,4-diamine] | 140 | 8 (≈ 19.6 µM) | 8 (≈ 19.6 µM) | 1900 | – | – | –
4 | CCOc1cc(Cc2cnc(N)nc2N)cc(OCC(C)C)c1-c1ccc(OC)cc1 [Example 09-g, 5-(2-Ethoxy-6-isobutox-4′-methoxy-biphenyl-4-ylmethyl)-pyrimidine-2,4-diamine] | 50 | 4 (≈ 9.47 µM) | 4 (≈ 9.47 µM) | 1600 | – | – | –
5 | CCOc1cc(Cc2cnc(N)nc2N)cc(OCC2CCC2)c1-c1ccc2c(c1)OCO2 [Example 10-a, 5-(4-Benzof[1.3]dioxol-5-yl-3-cyclobutylmethoxy-5-ethoxy-benzyl)-pyrimidine-2,4-diamine] | 34 | 8 (≈ 17.8 µM) | 8 (≈ 17.8 µM) | 1400 | – | – | –
6 | CCOc1cc(Cc2cnc(N)nc2N)cc(OCC2CC2)c1-c1ccc2c(c1)OCO2 [Example 10-b, 5-(4-Benzo[1.3]dioxol-5-yl-3-cyclopropylmethoxy-5-ethoxy-benzyl)-pyrimidine-2,4-diamine] | 40 | 8 (≈ 18.4 µM) | 2 (≈ 4.6 µM) | 2400 | – | – | –
7 | CCOc1cc(Cc2cnc(N)nc2N)cc(OCC(C)C)c1-c1ccc2c(c1)OCO2 [Example 10-c, 5-(4-Benzo[1,3]dioxol-5-yl-3-ethoxy-5-isobutoxy-benzyl)-pyrimidine-2,4-diamine] | 11 | 8 (≈ 18.3 µM) | 4 (≈ 9.16 µM) | 5000 | – | – | –
8 | CCOc1cc(Cc2cnc(N)nc2N)cc(OC2CCCC2)c1-c1ccc2c(c1)OCO2 [Example 10-d, 5-(4-Benzo[1,3]dioxol-5-yl-3-cyclopentyloxy-5-ethoxy-benzyl)-pyrimidine-2,4-diamine] | 42 | 4 (≈ 8.92 µM) | 8 (≈ 17.8 µM) | 1700 | – | – | –
9 | CCOc1cc(Cc2cnc(N)nc2N)cc(OC2CCC2)c1-c1ccc2c(c1)OCO2 [Example 10-e, 5-(4-Benzo[1.31]dioxol-5-yl-3-cyclobutoxy-5-ethoxy-benzyl)-pyrmidine-2,4-diamine] | 50 | 8 (≈ 18.4 µM) | 8 (≈ 18.4 µM) | 1800 | – | – | –
10 | C=C(C)COc1cc(Cc2cnc(N)nc2N)cc(OCC)c1-c1ccc2c(c1)OCO2 [Example 10-f, 5-[4-Benzo[1.3]dioxol-5-yl-3-ethoxy-5-(2-methyl-allyloxy)-benzyl]-pyrimidine-2,4-diamine] | 85 | 8 (≈ 18.4 µM) | 8 (≈ 18.4 µM) | 1800 | – | – | –
11 | CCOc1cc(Cc2cnc(N)nc2N)cc(OCC2CC2)c1-c1ccc(N)c(C)c1 [Example 11-a] | 18 | 8 (≈ 19.1 µM) | 1 (≈ 2.38 µM) | 1800 | – | – | –
12 | CCOc1cc(Cc2cnc(N)nc2N)cc(OCC2CC2)c1-c1ccc(OC)c(N)c1 [Example 12-, 5-(3′-Amino-2-cyclopropylmethoxy-6-ethoxy-4′-methoxy-biphenyl-4-ylmethl)-pyrimidine-2,4-diamine] | 14 | 8 (≈ 18.4 µM) | 2 (≈ 4.59 µM) | 1800 | – | – | –
13 | CCOc1cc(Cc2cnc(N)nc2N)cc(OCC2CC2)c1-c1ccc(N)cc1 [Example 13-, 5-(4′-Amino-2-cyclopropylmethoxy-6-ethoxy-biphenyl-4-ylmethyl)-pyrimidine-2,4-diamine] | 16 | 8 (≈ 19.7 µM) | 2 (≈ 4.93 µM) | 1400 | – | – | –
14 | CCOc1cc(Cc2cnc(N)nc2N)cc(OS(C)(=O)=O)c1-c1cccc(N)c1 [Example 14-a, Methanesulphonic acid 3′-amino-4-(2,4-diamino-gyrimidin-5-ylmethyl)-6-ethoxy-biphenyl-2-yl ester] | 23 | 8 (≈ 18.6 µM) | 4 (≈ 9.31 µM) | 350 | – | – | –
15 | CCOc1cc(Cc2cnc(N)nc2N)cc(OS(=O)(=O)CC)c1-c1cccc(N)c1 [Example 14-b, Ethanesulphonic acid 3′-amino-4-(2,4-diamino-pyrimidin-5-ylmethyl)-6-ethoxy-biphenyl-2-yl ester] | 19 | 2 (≈ 4.51 µM) | 2 (≈ 4.51 µM) | 140 | – | – | –
16 | CCCS(=O)(=O)Oc1cc(Cc2cnc(N)nc2N)cc(OCC)c1-c1cccc(N)c1 [Example 14-d] | 16 | 2 (≈ 4.37 µM) | 1 (≈ 2.19 µM) | 82 | – | – | –
17 | CCOc1cc(Cc2cnc(N)nc2N)cc(OS(=O)(=O)c2ccc(OC)c(F)c2)c1-c1cccc(N)c1 [Example 14-e, 3-Fluoro-4-methoxy-benzenesulphonic acid 3′-amino-4-(2,4-diamino-pyrimidin-5-ylmethyl)-6-ethoxy-biphenyl-2-yl ester] | 12 | 8 (≈ 14.8 µM) | 1 (≈ 1.85 µM) | 410 | – | – | –
18 | CCOc1cc(Cc2cnc(N)nc2N)cc(OS(=O)(=O)c2cccs2)c1-c1cccc(N)c1 [Example 14-f, Thiophene-2-sulphonic acid 3′-amino-4-(2,4-diamino-pyrimidin-5-ylmethyl)-6-ethoxy-biphenyl-2-yl ester] | 1.8 | 4 (≈ 8.04 µM) | 1 (≈ 2.01 µM) | 320 | – | – | –
19 | CCOc1cc(Cc2cnc(N)nc2N)cc(OS(=O)(=O)CC(C)C)c1-c1cccc(N)c1 [Example 14-h, 2-Methyl-propane-1-sulphonic acid 3′-amino-4-(2,4-diamino-Dyrimidin-5-ylmethyl)-6-ethoxy-biphenyl-2-yl ester] | 4.8 | 2 (≈ 4.24 µM) | 0.5 (≈ 1.06 µM) | 320 | – | – | –
20 | CCOc1cc(Cc2cnc(N)nc2N)cc(OS(=O)(=O)CC(C)(C)C)c1-c1cccc(N)c1 [Example 14-i, 2,2-Dimethyl-propane-1-sulphonic acid 3′-amino-4-(2,4-diamino-pyrimidin-5-ylmethyl)-6-ethoxy-biphenyl-2-yl ester] | 5.4 | 8 (≈ 16.5 µM) | 0.5 (≈ 1.03 µM) | 220 | – | – | –
21 | CCOc1cc(Cc2cnc(N)nc2N)cc(OS(=O)(=O)C(C)C)c1-c1cccc(N)c1 [Example 14c, Propane-2-sulphonic acid 3′-amino-4-(2,4-diamino-pyrimidin-5-ylmethyl)-6-ethoxy-biphenyl-2-yl ester] | – | – | – | 61 | 20 | 1 (≈ 2.19 µM) | 1 (≈ 2.19 µM)
22 | CCOc1cc(Cc2cnc(N)nc2N)cc(OS(=O)(=O)C(C)CC)c1-c1cccc(N)c1 (stereo not shown) [Example 14g, Butane-2-sulphonic acid 3′-amino-4-(2,4-diamino-pvrimidin-5-ylmethyl)-6-ethoxy-biphenyl-2-yl ester] | – | – | – | 30 | 3.7 | 1 (≈ 2.12 µM) | 1 (≈ 2.12 µM)
23 | CCOc1cc(Cc2cnc(N)nc2N)cc(OS(C)(=O)=O)c1-c1ccc(O)cc1 [Example 15-a, Methanesulphonic acid 4-(2,4-diamino-pyrimidin-5-ylmethyl)-6-ethoxy-4′-hydroxy-biphenyl-2-yl ester] | 32 | 8 (≈ 18.6 µM) | 4 (≈ 9.29 µM) | 550 | – | – | –
24 | CCOc1cc(Cc2cnc(N)nc2N)cc(OS(=O)(=O)CC)c1-c1ccc(O)cc1 [Example 15-b, Ethanesulphonic acid 4-(2,4-diamino-pyrimidin-5-ylmethyl)-6-ethoxy-4′-hydroxy-biphenyl-2-yl ester] | 23 | 4 (≈ 9 µM) | 2 (≈ 4.5 µM) | 180 | – | – | –
25 | CCOc1cc(Cc2cnc(N)nc2N)cc(OS(=O)(=O)C(C)C)c1-c1ccc(O)cc1 [Example 15-c, Propane-2-sulphonic acid 4-(2,4-diamino-pyrimidin-5-ylmethyl)-6-ethoxy-4′-hydroxy-biphenyl-2-yl ester] | 12 | 1 (≈ 2.18 µM) | 1 (≈ 2.18 µM) | 64 | – | – | –
26 | CCCS(=O)(=O)Oc1cc(Cc2cnc(N)nc2N)cc(OCC)c1-c1ccc(O)cc1 [Example 15-d, Propane-1-sulphonic acid 4-(2,4-diamino-primidin-5-ylmethyl)-6-ethoxy-4′-hydroxy-biphenyl-2-yl ester] | 18 | 2 (≈ 4.36 µM) | 1 (≈ 2.18 µM) | 62 | – | – | –
27 | CCOc1cc(Cc2cnc(N)nc2N)cc(OS(=O)(=O)C2CC2)c1-c1ccc(O)cc1 [Example 15-e, Cylopropanesulphonic acid 4-(2,4-diamino-pyrimidin-5-ylmethyl)-6-ethoxy-4′-hydroxn-biphenyl-2-yl ester] | 12 | 8 (≈ 17.5 µM) | 1 (≈ 2.19 µM) | 94 | – | – | –
28 | CCOc1cc(Cc2cnc(N)nc2N)cc(OS(=O)(=O)CC(C)C)c1-c1ccc(O)cc1 [Example 15-f, 2-Methyl-propane-1-sulphonic acid 4-(2,4-diamino-pyrimidin-5-ylmethyl)-6-ethoxy-4′-hydroxy-biphenyl-2-yl ester] | 6.7 | 4 (≈ 8.46 µM) | 0.5 (≈ 1.06 µM) | 380 | – | – | –
